Results on two compounds are retold here after patent US9816993B2, “Magnetically induced microspinning for super-detection and super-characterization of biomarkers and live cells” (THE REGENTS OF THE UNIVERSITY OF MICHIGAN, priority 2011, dated 2017).

This assay concerns HeLa cell. The assay can be described thus: Cell magnetorotation of a single HeLa cell: rotation period and morphology under toxic agents. The assay is classed as cell-based. An excerpt: The Y axis is the normalized period, and the X axis is time in seconds. Lines show trend between connected points. For each graph, in the pictures above it, the bottom pictures show snapshots of the rotated cell at each indicated time, while the schematic pictures on top of it show the corresponding cell shapes (fixated cell not shown). Dark discs represent the cell cytoplasm and membrane, while grey spots show the vesicles formed at the surface, if any.
In this example, cancer cells loaded with nanoparticles were magnetically separated and resuspended in different media, such as culture medium (DMEM), DMEM with 5% Ethanol, or DMEM with 75% deionized water. Each medium was used to verify different aspects of this method: DMEM was used as a control, ethanol was used as a cytotoxic agent, and, to promote stress through cell swelling, we used a large proportion of DI water, reversing the ionic balance between the inside and outside of the cell. Note that a large concentration of salt in solution has the opposite effect on the cell, namely shrinking it. The cells in suspension were then pipetted onto a LIVE CELL ARRAY plate (NUNC), where the array has 100 μm wide wells, which provide adequate compartments for single cells to rotate and be analyzed. Optical scattering signals were recorded and the changes in the rotation period were measured for the different media (FIG. 2).
Cell swelling generally occurs because of the osmotic pressure created either by an ionic imbalance, as mentioned earlier, or by a lack of nutrients. Either way, the cell expands to cope with the imbalance of the chemicals it needs for maintaining its metabolism. To reach ionic disparity, we used DI water (FIG. 2B).

Each structure is given as a SMILES string.

Turning to `N.N.[Cl][Pt][Cl]` [Cisplatin], the “rise of cell rotation period” value (Cisplatin 100 ug/ml (red line on FIG. 2D)) was determined as 550%. Besides, for the setting “Cisplatin at 100 ug/ml”, the “time for blebs to appear at the surface of the cell” value is “several hours”. The cell death result (single HeLa cell in DMEM with 100 ug/ml Cisplatin) is on record as “cell death is provoked”.
As to `CCO` [ethanol], the “time for blebs to appear at the surface of the cell” value (5% ethanol in DMEM) is “around 30 minutes”. The “rise of cell rotation period” value (5% ethanol in DMEM (FIG. 2C)) was 550%. Further, the cell death entry (single HeLa cell in DMEM with 5% ethanol) is listed as “cell death is provoked”.
